Reference: patent US20060263827A1, “Novel endothelial cells, antibodies directed against said cells and use thereof, in particular for screening angiogenesis inhibiting substances” (priority 2002, published 2006)
Entries after “also recorded” stand apart in the source; their conditions may differ.

Columns and labels:
[1] = tested on: F/V cells (angiogenic endothelial cells of foetal bovine aorta); assay: Proliferation test on F/V cells; format: cell-based; conditions: for sensitivity of F/V cells compared with F/0 cells to anti-angiogenic agent: F/V versus F/0 cells, seeded at low density (5000), FIG. 4
Description: (§1) FIG. 5A relates in particular to the action of the type 3 antibodies on the proliferation of the F/V cells of angiogenic phenotype. FIG. 5B relates to the action of the type 3 antibodies on the proliferation of the F/O non-angiogenic cells. The test carried out is a proliferation test as described in the examples. The cells are cultured in DMEM supplemented with 5% newborn calf serum to which is added either no angiogenic factor (condition 0), or 2 ng/ml VEGF (condition VEGF), or 2 ng/ml FGF-2 (condition FGF-2). The antibody is added at the same time as the angiogenic factors, at variable concentrations (0, 1, 3 or 7 μg/ml).
(§2) The test carried out is a proliferation test as described in the examples. The cells are cultured in DMEM supplemented with 5% newborn calf serum. The antibody is added at the same time as the angiogenic factors, at variable concentrations (0, 50 or 100 μg/ml).
(§3) 12-well plates are seeded at a low density (5000 to 10,000 cells/well), in DMEM medium with 8% serum. After 24 hours, the proliferation of the cells is stimulated by the addition of a range of growth factor, anti-angiogenic medicaments (methoxyestradiol, fumagillin, SU5416 targeted on VEGF-R2—Plouët et al., 2001) or antibodies of the present invention. The cells are restimulated after 48 hours and then after a total of five days in culture the cells are trypsinated and counted with a Coulter counter.
The F/0 and F/V cells are seeded at a low density (5000) as indicated and three drugs are inoculated separately, 2 of which are of unknown mechanism (Methoxyestradiol-ME-2 and fumagillin—FUMA) and 1 interfering with VEGF-R2 (SU 5416) inhibiting kinase activity.

[2] = tested on: F/0 cells (non-angiogenic endothelial cells of foetal bovine aorta); assay: Proliferation test on F/0 cells; format: cell-based
Description: as §1, §2
as §3, with “counter. […]” for “counter.”

| Compound | ED 50 of mitogenic action ([1]; F/V cells) [ng/mL] | proliferation under the action of VEGF (in words) [2] | sensitivity of F/V cells compared with F/0 cells to anti-angiogenic agent [1] |
| --- | --- | --- | --- |
| VEGF | 0.3 | do not proliferate | – |
| COc1cc2c(cc1O)CC[C@@H]1[C@@H]2CC[C@]2(C)[C@@H](O)CC[C@@H]12 [methoxyestradiol] | – | – | identically sensitive; also recorded: equally sensitive |
| Cc1cc(C)c(/C=C2\C(=O)Nc3ccccc32)[nH]1 [SU 5416] | – | – | much more sensitive |
| CO[C@@H]1[C@H](OC(=O)/C=C/C=C/C=C/C=C/C(=O)O)CC[C@]2(CO2)[C@H]1[C@@]1(C)O[C@@H]1CC=C(C)C [fumagillin] | – | – | identically sensitive; also recorded: equally sensitive |
